*1 amine or outer side, *2 acyl side, *3 side chain or, on linkers, in order; H or OH if unused. Where a SMILES comes first, the peptide text is derived from it. Side-chain parts run from the residue outwards. [ ]: non-standard residue; d: D form. The star is where a group is joined. γGlu = O=C(O)[C@H](CCC(=O)[*:2])N[*:1]; Palmitoyl = CCCCCCCCCCCCCCCC(=O)*; Aib = CC(C)(N)C(=O)O; GABA = NCCCC(=O)O

Data set [1] in a line: physchem. It counts as physicochemical. As to the method:
Prior to the testing of solubility and stability of a peptide batch, its content was determined. Therefore, two parameters were investigated, its purity (HPLC-UV) and the amount of salt load of the batch (ion chromatography). Since synthesized peptides contain primarily trifluoracetate anions, only anion chromatography was performed. The content was then calculated based on the assumption that peptide-related impurities are detected at the same UV-absorption rate as the target peptide, as well as that cations are not present in the sample.
Therefore, solutions from solid samples were prepared in different buffer systems with a concentration of 1.0 mg/mL compound based on the previously determined content. HPLC-UV was performed after 2 h of gentle agitation from the supernatant, which was obtained by 20 min of centrifugation at 4000 rpm. […] This analysis also served as t0 for the stability testing.
Instrument: Agilent 1100, column: X-Bridge C18 3.5 μm 2.1×150 mm (Waters), eluent: A: H20+500 ppm TFA/B: Methanol, flow: 0.55 ml/min, gradient: 0-5 min: 10-60% B; 5-15 min: 60-99% B; detection: 214 nm.

The target in data set [2] is T1, human GLP-1 receptor (hGLP-1 R) (Homo sapiens, UniProt P43220).
T1 construct: expressed in transfected cells; host or cells: HEK-293
Kind of data set: cAMP response (HTRF) of HEK-293 cells stably expressing human GLP-1 receptor. In kind it is cell-based. Particulars: HEK-293 cells expressing human GLP-1 receptor, cAMP formation. A digest of the protocol:
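Detached HEK-293 cells stably expressing the receptor were suspended in HBSS with 20 mM HEPES, 0.1% BSA and 2 mM IBMX. Test compound was added for 30 min at room temperature, and cellular cAMP was quantified by HTRF.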
On the technique in general: In TR-FRET formats the signal depends on donor and acceptor labels being close together.

T1 sequence (P43220 24-463): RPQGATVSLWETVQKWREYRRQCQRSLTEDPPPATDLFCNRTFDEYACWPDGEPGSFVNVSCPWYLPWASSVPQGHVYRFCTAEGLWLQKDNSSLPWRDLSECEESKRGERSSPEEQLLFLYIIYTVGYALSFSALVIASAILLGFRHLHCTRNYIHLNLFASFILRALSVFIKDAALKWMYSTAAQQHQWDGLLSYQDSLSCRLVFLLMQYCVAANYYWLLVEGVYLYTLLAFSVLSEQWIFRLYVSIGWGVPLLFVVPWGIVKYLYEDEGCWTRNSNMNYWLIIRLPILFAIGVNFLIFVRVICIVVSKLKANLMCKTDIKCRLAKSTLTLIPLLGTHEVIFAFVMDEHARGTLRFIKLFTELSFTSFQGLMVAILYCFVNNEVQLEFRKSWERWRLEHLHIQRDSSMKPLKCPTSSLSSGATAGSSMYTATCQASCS

Consider `CCCCCCCCCCCCCCCC(=O)N[C@@H](CCC(=O)NCCCC[C@H](NC(=O)[C@H](CO)NC(=O)[C@@H]1CCCN1C(=O)[C@@H]1CCCN1C(=O)[C@@H]1CCCN1C(=O)[C@H](C)NC(=O)CNC(=O)[C@H](CO)NC(=O)[C@H](CO)NC(=O)[C@@H]1CCCN1C(=O)CNC(=O)CNC(=O)[C@H](C)NC(=O)[C@H](CCCCN)NC(=O)[C@H](CC(C)C)NC(=O)[C@H](Cc1c[nH]c2ccccc12)NC(=O)[C@H](CCC(=O)O)NC(=O)[C@@H](NC(=O)[C@H](Cc1ccccc1)NC(=O)[C@H](CC(=O)O)NC(=O)[C@H](CCC(N)=O)NC(=O)[C@H](C)NC(=O)[C@H](CCCNC(=N)N)NC(=O)[C@H](CCCNC(=N)N)NC(=O)[C@H](CO)NC(=O)[C@H](CC(=O)O)NC(=O)[C@H](CCSC)NC(=O)[C@H](CCC(N)=O)NC(=O)[C@H](CCCCN)NC(=O)[C@H](CO)NC(=O)[C@H](CC(C)C)NC(=O)[C@H](CC(=O)O)NC(=O)[C@H](CO)NC(=O)[C@@H](NC(=O)[C@H](Cc1ccccc1)NC(=O)[C@@H](NC(=O)CNC(=O)[C@H](CCC(N)=O)NC(=O)[C@@H](CO)NC(=O)[C@@H](N)Cc1c[nH]cn1)[C@@H](C)O)[C@@H](C)O)[C@@H](C)CC)C(N)=O)C(=O)O` [(60)] (H-H[dS]QGTFTSDLSKQMDSRRAQDFIEWLKAGGPSSGAPPPSK([γGlu-Palmitoyl])-NH2), for which the solubility at 2 h in data set [1] (pH 4.5) and in data set [1] (pH 7.4) was over 1000 µg/mL in each case.

In the case of `CCCCCCCCCCCCCCCC(=O)N[C@@H](CCC(=O)NCCCC[C@H](NC(=O)[C@H](CO)NC(=O)[C@@H]1CCCN1C(=O)[C@@H]1CCCN1C(=O)[C@@H]1CCCN1C(=O)[C@H](C)NC(=O)CNC(=O)[C@H](CO)NC(=O)[C@H](CO)NC(=O)[C@@H]1CCCN1C(=O)CNC(=O)CNC(=O)[C@H](C)NC(=O)[C@H](CCCCN)NC(=O)[C@H](CC(C)C)NC(=O)[C@H](Cc1c[nH]c2ccccc12)NC(=O)[C@H](CCC(=O)O)NC(=O)[C@@H](NC(=O)[C@H](Cc1ccccc1)NC(=O)[C@H](CC(=O)O)NC(=O)[C@H](CCC(N)=O)NC(=O)[C@H](C)NC(=O)[C@H](C)NC(=O)C(C)(C)NC(=O)[C@H](CO)NC(=O)[C@H](CCC(=O)O)NC(=O)[C@H](CCSC)NC(=O)[C@H](CCC(N)=O)NC(=O)[C@H](CCCCN)NC(=O)[C@H](CO)NC(=O)[C@H](CC(C)C)NC(=O)[C@H](CC(=O)O)NC(=O)[C@H](CO)NC(=O)[C@@H](NC(=O)[C@H](Cc1ccccc1)NC(=O)[C@@H](NC(=O)CNC(=O)[C@H](CCC(N)=O)NC(=O)[C@@H](CO)NC(=O)[C@@H](N)Cc1c[nH]cn1)[C@@H](C)O)[C@@H](C)O)[C@@H](C)CC)C(N)=O)C(=O)O` [(111)] (H-H[dS]QGTFTSDLSKQMES[Aib]AAQDFIEWLKAGGPSSGAPPPSK([γGlu-Palmitoyl])-NH2), in data set [2], the EC50 – broadly, the concentration at which the effect is half-maximal – was 4.1 pM.

`CCCCCCCCCCCCCCCC(=O)N[C@@H](CCC(=O)NCCCC[C@H](NC(=O)[C@H](CO)NC(=O)[C@@H]1CCCN1C(=O)[C@@H]1CCCN1C(=O)[C@@H]1CCCN1C(=O)[C@H](C)NC(=O)CNC(=O)[C@H](CO)NC(=O)[C@H](CO)NC(=O)[C@@H]1CCCN1C(=O)CNC(=O)CNC(=O)[C@H](C)NC(=O)[C@H](CCCCN)NC(=O)[C@H](CC(C)C)NC(=O)[C@H](Cc1c[nH]c2ccccc12)NC(=O)[C@H](CCC(=O)O)NC(=O)[C@@H](NC(=O)[C@H](Cc1ccccc1)NC(=O)[C@H](CC(C)C)NC(=O)[C@H](CCC(N)=O)NC(=O)[C@H](C)NC(=O)[C@H](C)NC(=O)C(C)(C)NC(=O)[C@H](CO)NC(=O)[C@H](CCC(=O)O)NC(=O)[C@H](CCSC)NC(=O)[C@H](CCC(N)=O)NC(=O)[C@H](CCCCN)NC(=O)[C@H](CO)NC(=O)[C@H](CC(C)C)NC(=O)[C@H](CC(=O)O)NC(=O)[C@H](CO)NC(=O)[C@@H](NC(=O)[C@H](Cc1ccccc1)NC(=O)[C@@H](NC(=O)CNC(=O)[C@H](CCC(N)=O)NC(=O)[C@@H](CO)NC(=O)[C@@H](N)Cc1c[nH]cn1)[C@@H](C)O)[C@@H](C)O)[C@@H](C)CC)C(N)=O)C(=O)O` [(112)] (H-H[dS]QGTFTSDLSKQMES[Aib]AAQLFIEWLKAGGPSSGAPPPSK([γGlu-Palmitoyl])-NH2): the EC50 in data set [2] stood at 9.7 pM.

Turning to `CCCCCCCCCCCCCCCC(=O)N[C@@H](CCC(=O)NCCCC[C@H](NC(=O)[C@H](CO)NC(=O)[C@@H]1CCCN1C(=O)[C@@H]1CCCN1C(=O)[C@@H]1CCCN1C(=O)[C@H](C)NC(=O)CNC(=O)[C@H](CO)NC(=O)[C@H](CO)NC(=O)[C@@H]1CCCN1C(=O)CNC(=O)CNC(=O)[C@H](C)NC(=O)[C@H](CCCCN)NC(=O)[C@H](CC(C)C)NC(=O)[C@H](Cc1c[nH]c2ccccc12)NC(=O)[C@H](CCC(=O)O)NC(=O)[C@@H](NC(=O)[C@H](Cc1ccccc1)NC(=O)[C@H](CC(C)C)NC(=O)[C@H](CCC(N)=O)NC(=O)[C@H](C)NC(=O)[C@H](C)NC(=O)[C@H](CCC(=O)O)NC(=O)[C@H](CO)NC(=O)[C@H](CCC(=O)O)NC(=O)[C@H](CCSC)NC(=O)[C@H](CCC(N)=O)NC(=O)[C@H](CCCCN)NC(=O)[C@H](CO)NC(=O)[C@H](CC(C)C)NC(=O)[C@H](CC(=O)O)NC(=O)[C@H](CO)NC(=O)[C@@H](NC(=O)[C@H](Cc1ccccc1)NC(=O)[C@@H](NC(=O)CNC(=O)[C@H](CCC(N)=O)NC(=O)[C@@H](CO)NC(=O)[C@@H](N)Cc1c[nH]cn1)[C@@H](C)O)[C@@H](C)O)[C@@H](C)CC)C(N)=O)C(=O)O` [(114)] (H-H[dS]QGTFTSDLSKQMESEAAQLFIEWLKAGGPSSGAPPPSK([γGlu-Palmitoyl])-NH2), a half-maximal response in data set [2] (EC50) required 3.1 pM.

Consider `CCCCCCCCCCCCCCCC(=O)NCCCC(=O)NCCCC[C@H](NC(=O)[C@H](CO)NC(=O)[C@@H]1CCCN1C(=O)[C@@H]1CCCN1C(=O)[C@@H]1CCCN1C(=O)[C@H](C)NC(=O)CNC(=O)[C@H](CO)NC(=O)[C@H](CO)NC(=O)[C@@H]1CCCN1C(=O)CNC(=O)CNC(=O)[C@H](CO)NC(=O)[C@H](CCCCN)NC(=O)[C@H](CC(C)C)NC(=O)[C@H](Cc1c[nH]c2ccccc12)NC(=O)[C@H](CCC(=O)O)NC(=O)[C@@H](NC(=O)[C@H](Cc1ccccc1)NC(=O)[C@H](CC(=O)O)NC(=O)[C@H](CCC(N)=O)NC(=O)[C@H](C)NC(=O)[C@H](CCCNC(=N)N)NC(=O)[C@H](CCCNC(=N)N)NC(=O)[C@H](CO)NC(=O)[C@H](CCC(=O)O)NC(=O)[C@H](CCSC)NC(=O)[C@H](CCC(N)=O)NC(=O)[C@H](CCCCN)NC(=O)[C@H](CO)NC(=O)[C@H](CC(C)C)NC(=O)[C@H](CC(=O)O)NC(=O)[C@H](CO)NC(=O)[C@@H](NC(=O)[C@H](Cc1ccccc1)NC(=O)[C@@H](NC(=O)CNC(=O)[C@H](CCC(N)=O)NC(=O)[C@@H](CO)NC(=O)[C@@H](N)Cc1c[nH]cn1)[C@@H](C)O)[C@@H](C)O)[C@@H](C)CC)C(N)=O` [(125)] (H-H[dS]QGTFTSDLSKQMESRRAQDFIEWLKSGGPSSGAPPPSK([GABA-Palmitoyl])-NH2), for which, in data set [2], the EC50 turned out to be 10.8 pM.
